From US6130232A, “Substituted piperidine derivatives as muscarinic M3 receptor antagonists” (Banyu Pharmaceutical Coaltd, priority 1995, dated 2000)
pKi: −log10 of the molar value.

What was measured:
[1] = test system: airway resistance increase; experiment: Airway resistance enhancement in rats (acetylcholine-induced); type: in vivo, rat; conditions: for activities in both airway constriction and bradycardia, in words: in vivo, Table 3, both tests; for ED50: iv, 5 min, rat, i.v., acetylcholine 50 μg/kg, read-out: airway constriction ID50
Procedure: Eight- to eleven-weeks-old Sprague-Dawley strain rats (300-400 g) were anesthetized with urethane (750 mg/kg, i.p.) and α-chloralose (37.5 mg/kg, i.p.). The bronchus of each rat was intubated, and the right jugular vein was cannulated for drug administration. […] After stable airway resistance increase induced by intravenous administration of acetylcholine (50 μg/kg) was observed, a test compound was administered intravenously. After 5 minutes, once again the airway resistance increase was induced with acetylcholine. The inhibition ratio of the tested compound on the airway resistance increase before administration of the test compound was calculated, and the dose of the test compound which inhibited the airway resistance obtained before the drug administration by 50% was recorded as ID50 value.

bradycardia = experiment: Rat bradycardia (acetylcholine-induced); type: in vivo; conditions: for selectivity of bronchodilation over bradycardiac response, in words: in vivo, Table 3; for ED50: iv, 5 min, rat, i.v., acetylcholine 10 μg/kg, read-out: bradycardia ID50
Procedure: Eight- to eleven-weeks-old Sprague-Dawley strain rats (300-400 g) were anesthetized by intraperitoneal injection of urethane (750 mg/kg) and α-chloralose (37.5 mg/kg), and their right carotid artery, left juglar vein and airway of the rat were cannulated. […] After stable bradycardia induced by intravenous administration of acetylcholine (10 μg/kg) was observed, a test compound was intravenously administered. Five minutes later, bradycardia was induced once again with acetylcholine administration. The inhibition ratio to the bradyeardia obtained before the administration of the test compound was calculated, and the dose of the test compound which inhibited the bradycardia obtained before the drug administration by 50% was recorded as ID50 value.

airway M3 receptor = target: T1, airway M3 receptor (Rattus norvegicus, UniProt P08483); experiment: Antagonism to airway M3 receptor in isolated rat trachea; conditions: agonist carbachol
T1 construct: the trachea was isolated; from tissue; host or cells: isolated rat trachea (male SD rats)
T1 sequence (P08483 whole entry): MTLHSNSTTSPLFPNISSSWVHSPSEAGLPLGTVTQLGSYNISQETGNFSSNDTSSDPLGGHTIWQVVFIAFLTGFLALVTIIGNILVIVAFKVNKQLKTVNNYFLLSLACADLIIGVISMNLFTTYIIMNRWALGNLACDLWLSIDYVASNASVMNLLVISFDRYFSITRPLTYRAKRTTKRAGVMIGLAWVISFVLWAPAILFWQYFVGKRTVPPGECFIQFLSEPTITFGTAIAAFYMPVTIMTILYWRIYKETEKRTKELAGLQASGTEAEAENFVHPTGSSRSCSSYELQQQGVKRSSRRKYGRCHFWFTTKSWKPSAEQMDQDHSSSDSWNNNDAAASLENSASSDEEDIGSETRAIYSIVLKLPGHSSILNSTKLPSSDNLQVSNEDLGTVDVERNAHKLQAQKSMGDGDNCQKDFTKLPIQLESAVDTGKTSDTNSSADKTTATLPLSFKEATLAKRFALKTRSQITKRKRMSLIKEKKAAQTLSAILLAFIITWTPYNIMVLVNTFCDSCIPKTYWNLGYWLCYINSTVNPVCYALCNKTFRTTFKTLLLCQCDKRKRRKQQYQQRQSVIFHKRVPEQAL
Procedure: Male SD strain rats (200-300 g) were sacrificed by exsanguination and the trachea was isolated. Ring segments (2 mm wide) were cut out from the trachea and cut transversely at the anterior cartilage part to make open ring preparations. Each preparation was suspended in a Magnus tube filled with 5 ml of Krebs-Henseleit solution (gassed with 95% O2 -5% CO2, at 37° C.) at an initial tension of 1.0 g and a resting tension of 0.6 g. The tension of the preparation was recorded isometrically. After being equilibrated for an hour, the preparation was made to contract twice by treatment with 10^-4 M carbachol, and the second contraction induced by carbachol was used as the reference contraction. After the preparation was washed with fresh solution to be recovered to the base line, a test compound was administered thereto (or no treatment was given). Ten minutes later, carbachol (10^-8 to 10^-3 M) was cumulatively administered in three-fold increased doses to obtain a dose-response curve. The dose-response curve was plotted by expressing responses as percentages based on the reference contraction of the preparation as 100%. The antagonistic potency (KB value) of the test compound was determined from the degree of shift of the dose-response curve obtained by treatment with the test compound.

muscarinic M3 receptor = target: T2, muscarinic M3 receptor (Rattus norvegicus, UniProt P08483); experiment: Inhibition of M3 muscarinic receptor binding ([3H]-N-methylscopolamine, lacrimal gland membrane); conditions: for pKi: rat lacrimal gland membrane, 0.02 nM [3H]-N-methylscopolamine; for M1 / M3 / M2 / M3: ratio of binding Ki
T2 construct: the membrane preparations of the lacrimal glands were used as the test specimens; from tissue; host or cells: rat lacrimal gland membranes (male SD rats)
T2 sequence (P08483 whole entry): as above
Procedure: (§1) Male SD strain rats weighing each 250 g-350 g [Japan Charles River K.K.] were sacrificed and their cerebral cortices, hearts and lacrimal glands were extirpated. The isolated organs were homogenized with Polytron (setting: 5) in an ice-cooled, 5-times diluted buffer solution (pH 7.4) containing 50 mM tris-hydrochloric acid, 5 mM magnesium chloride, 1 mM ethylenediamine-tetraacetic acid trisodium salt and 20% sucrose, followed by 15 minutes' centrifuge at 3,000×g and 4° C. After filtering the supernatant through gauze cloth, the filtrate was further subjected to an ultracentrifugation at 100,000×g at 4° C. for 45 minutes. The resultant precipitate was suspended in an ice-cooled buffer solution (pH 7.4, hereafter abbreviated as tris buffer) containing 50 mM tris-hydrochloric acid and 5 mM magnesium chloride. The suspension was subjected to an ultracentrifugation at 100,000×g at 4° C. for 45 minutes. The resultant precipitate was suspended in tris buffer at a concentration of 50 mg/ml and kept at -80° C. until the time of use. It was melted at the time of use in the binding inhibition tests.
(§2) Namely, a cerebral cortex membrane preparation, 1 nM [^3 H]-telenzepine ([^3 H]-Telenzepine, 85 Ci/mmol, New England Nuclear) and a test compound were incubated in 0.5 ml of tris buffer at room temperature (about 20-25° C.) for 120 minutes. Into the incubated system, 0.5 ml of ice-cooled tris buffer was added and suction-filtered with a glass filter (Packard Unifilter Plate GF/C). The filter was washed 4 times each with 1 ml of ice-cooled tris buffer. After drying the filter at 50° C. for an hour, a scintillator (Microscinti O: Packard Instrument Co., Inc.) was added and the radioactivity of the [^3 H]-telenzepine which was adsorbed onto the filter was measured with a microplate scintillation counter (Top Count: Packard Instrument Co., Inc.). Non-specific binding of [^3 H]-telenzepine to the receptors was determined under addition of 10 μM pirenzepine.
The test was conducted in the manner similar to above 2) M1 muscarinic receptor binding inhibition test, except that the membrane preparations of the lacrimal glands were used as the test specimens and 0.02 nM [^3 H]-N-methylscopolamine was used as the labelling ligand. Non-specific binding of [^3 H]-N-methylscopolamine to the receptor was determined under addition of 1 μM N-methylscopolamine.

right atrium M2 receptor = target: T3, right atrium M2 receptor (Rattus norvegicus, UniProt P10980); experiment: Antagonism to M2 receptor in isolated rat right atrium; conditions: agonist carbachol
T3 construct: the right atrium was isolated; from tissue; host or cells: isolated rat right atrium (male SD rats)
T3 sequence (P10980 1-466): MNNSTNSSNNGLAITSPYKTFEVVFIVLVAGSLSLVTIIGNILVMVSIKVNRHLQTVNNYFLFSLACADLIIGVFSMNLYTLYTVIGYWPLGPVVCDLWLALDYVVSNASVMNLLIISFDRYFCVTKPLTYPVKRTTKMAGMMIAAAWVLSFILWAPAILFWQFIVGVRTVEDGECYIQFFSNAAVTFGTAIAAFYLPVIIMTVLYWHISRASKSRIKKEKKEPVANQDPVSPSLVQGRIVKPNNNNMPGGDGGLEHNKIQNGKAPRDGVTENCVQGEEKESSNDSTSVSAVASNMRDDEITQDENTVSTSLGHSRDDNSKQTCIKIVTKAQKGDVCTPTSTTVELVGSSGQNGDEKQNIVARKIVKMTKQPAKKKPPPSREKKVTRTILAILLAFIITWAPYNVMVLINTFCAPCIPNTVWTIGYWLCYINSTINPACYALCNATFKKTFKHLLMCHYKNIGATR
Procedure: This test was conducted following the method of Wess, et al. [British Journal of Pharmacology, Vol. 102, pp. 246-250]. Male SD strain rats (weighing 200-300 g) were sacrificed by exsanguination and the right atrium was isolated. […] The heart rate was recorded with a heart rate counter. After the preparation was equilibrated for 30 minutes, carbachol (10^-9 to 10^-6 M) was cumulatively administered from a low concentration to three-fold increased doses. Thus, a decrease in heart rate was measured to obtain a control dose-response curve. After the preparation was washed with fresh solution to recover the heart rate, a test compound was administered thereto. Ten minutes later, carbachol was cumulatively administered again. Carbachol-induced responses were expressed as percentages based on the heart rate before administration of carbachol as 100%.

ileum M3 receptor = target: T4, ileum M3 receptor (Rattus norvegicus, UniProt P08483); experiment: Antagonism to intestinal tract M3 receptor in isolated rat ileum; conditions: agonist carbachol, read-out: KB ileus M3
T4 construct: the ileum was isolated and formed into 2 cm-long preparations; from tissue; host or cells: isolated rat ileum (male SD rats)
T4 sequence (P08483 whole entry): as the sequence (P08483 whole entry) above
Procedure: Male SD strain rats (200-300 g) were sacrificed by exsanguination, and the ileum was isolated and formed into 2 cm-long preparations. […] Tension in the preparation was isotonically recorded. After an hour's equilibration, the preparation was contracted twice with 10^-6 M carbachol, the second contraction being recorded as the reference contraction. After the preparation was washed with fresh solution and recovered to the base line, a test compounds was administered thereto (or no treatment was given). Ten minutes later, carbachol (10^-8 to 10^-3 M) was cumulatively administered to the preparation from at a low concentration to three-fold increased dose to obtain a dose-response curve. The dose-response curve was plotted by expressing responses as percentages based on the reference contraction of the preparation which was set to be 100%.

muscarinic M2 receptor = target: T5, muscarinic M2 receptor (Rattus norvegicus, UniProt P10980); experiment: Inhibition of M2 muscarinic receptor binding ([3H]-N-methylscopolamine, heart membrane); conditions: 0.2 nM [3H]-N-methylscopolamine
T5 construct: the membrane preparations of the heart were used as the test specimens; from tissue; host or cells: rat heart membranes (male SD rats)
T5 sequence (P10980 1-466): T3 sequence (P10980 1-466)
Procedure: Hereinafter action of compounds of the present invention to inhibit binding to muscarinic receptors and their in vitro and in vivo antagonism to muscarinic receptors are described, to concretely indicate utility of the present invention. As the labelling ligand for M1 muscarinic receptor, [^3 H]-telenzepine was used and as that for M2 and M3 muscarinic receptors, [^3 H]-N-methyl-scopolamine was used, and dissociation constants (Ki) were calculated from concentration of each of the tested compounds to inhibit binding of the labelling ligand by 50% (IC50).
as §1
These tests were performed according to a modification of the method of Hargreaves et al. (Br. J. Pharmacol. 107: pp. 494-501, 1992). […] After drying the filter at 50° C. for an hour, a scintillator (Microscinti O: Packard Instrument Co., Inc.) was added and the radioactivity of the [^3 H]-telenzepine which was adsorbed onto the filter was measured with a microplate scintillation counter (Top Count: Packard Instrument Co., Inc.). Non-specific binding of [^3 H]-telenzepine to the receptors was determined under addition of 10 μM pirenzepine. […]
The test was conducted in the manner similar to above 2) M1 muscarinic receptor binding inhibition test, except that the membrane preparations of the heart were used as the test specimens and 0.2 nM [^3 H]-N-methylscopolamine ([^3 H]-N-Methylscopolamine, 84 Ci/mmol, New England Nuclear) was used as the labelling ligand. Non-specific binding of [^3 H]-N-methylscopolamine to the receptors was determined under addition of 1 μM N-methylscopolamine.

bladder M3 receptor = target: T6, bladder M3 receptor (Rattus norvegicus, UniProt P08483); experiment: Antagonism to bladder M3 receptor in isolated rat urinary bladder; conditions: agonist carbachol
T6 construct: the urinary bladder was isolated; from tissue; host or cells: isolated rat urinary bladder (male SD rats)
T6 sequence (P08483 whole entry): as the sequence (P08483 whole entry) above
Procedure: Male SD strain rats (200-300 g) were sacrificed by exsanguination and the urinary bladder was isolated. The bladders were cut into four longitudinal unfold sections, to form about 10 mm-long preparations. Each preparation was suspended in a Magnus tube filled with 5 ml of Krebs-Henseleit solution (gassed with 95% O2 -5% CO2 at 32° C.) at an initial tension of 0.5 g. The tension in the preparation was isometrically recorded. After an hour's equilibration, the preparation was contracted twice with 10^-4 M carbachol, the second contraction being recorded as the reference contraction. After the preparation was washed with fresh solution and recovered to the base line, a test compound was administered thereto (or no treatment was given). Ten minutes later, carbachol (10^-8 to 10^-3 M) was cumulatively administered to the preparation from at a low concentration to three-fold increased dose to obtain a dose-response curve. The dose-response curve was plotted by expressing responses as percentages based on the reference contraction of the preparation which was set to be 100%. The antagonistic potency (KB value) of the test compound was determined from the degree of shift in the dose-response curve resulted from the treatment with the test compound.

muscarinic M1 receptor = target: T7, muscarinic M1 receptor (Rattus norvegicus, UniProt P08482); experiment: Inhibition of M1 muscarinic receptor binding ([3H]-telenzepine, cerebral cortex membrane); conditions: 1 nM [3H]-telenzepine
T7 construct: a cerebral cortex membrane preparation, 1 nM; from tissue; host or cells: rat cerebral cortex membranes (male SD rats)
T7 sequence (P08482 1-460): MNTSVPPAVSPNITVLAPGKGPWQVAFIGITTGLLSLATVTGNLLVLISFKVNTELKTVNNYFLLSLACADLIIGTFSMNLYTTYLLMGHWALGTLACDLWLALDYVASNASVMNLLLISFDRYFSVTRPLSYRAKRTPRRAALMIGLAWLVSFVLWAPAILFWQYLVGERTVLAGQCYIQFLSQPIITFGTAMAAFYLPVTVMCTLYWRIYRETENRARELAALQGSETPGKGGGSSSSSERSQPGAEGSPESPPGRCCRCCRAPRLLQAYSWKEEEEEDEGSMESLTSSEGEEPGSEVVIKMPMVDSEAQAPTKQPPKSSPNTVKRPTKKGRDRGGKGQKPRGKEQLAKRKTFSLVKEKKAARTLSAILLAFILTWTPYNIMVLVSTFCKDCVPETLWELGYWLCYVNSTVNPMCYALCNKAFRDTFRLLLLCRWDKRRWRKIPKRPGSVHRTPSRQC
Procedure: as §1, §2

| Structure (SMILES) | activities in both airway constriction and bradycardia, in words [1] | ED50 [1] | selectivity of bronchodilation over bradycardiac response, in words (bradycardia) | ED50 (bradycardia) | Kb (airway M3 receptor) | pKi (muscarinic M3 receptor) | Kb (right atrium M2 receptor) | Kb (ileum M3 receptor) | pKi (muscarinic M2 receptor) | Kb (bladder M3 receptor) | M1 / M3 (muscarinic M3 receptor) | M2 / M3 (muscarinic M3 receptor) | pKi (muscarinic M1 receptor) |
| --- | --- | --- | --- | --- | --- | --- | --- | --- | --- | --- | --- | --- | --- |
| CC(C)[N+]1(C)[C@@H]2CC[C@H]1C[C@@H](OC(=O)C(CO)c1ccccc1)C2 (stereo partly shown) [ipratropium] | potent activities in both cases | 1.5 µg/kg | non-selective | 1.8 µg/kg |  |  |  |  |  |  |  |  |  |
| Cc1cccc(CN2CCC(NC(=O)[C@](O)(c3ccccc3)C3CCCC3)CC2)n1.Cl.Cl [Example 1, (2R)-N-[1-(6-methyl-2-pyridylmethyl)piperidin-4-yl]-2-cyclopentyl-2-hydroxy-2-phenylacetamide dihydrochloride] |  | 37 µg/kg |  | > 3000 µg/kg | 4.4 nM | 8.54 | 1100 nM | 70 nM | 5.96 | 3.6 nM |  |  |  |
| O=C(NC1CCN(Cc2cc(Cl)ccn2)CC1)C(O)(c1ccccc1)C1CCCC1 (stereo not shown) [Example 11, N-[1-(4-chloro-2-pyridylmethyl)piperidin-4-yl]-2-cylopentyl-2-hydroxy-2-phenylacetamide] |  |  |  |  |  | 8.06 |  |  | 6.14 |  | 1.3 | 83 | 7.96 |
| COc1ccnc(CN2CCC(NC(=O)C(O)(c3ccccc3)C3CCCC3)CC2)c1 (stereo not shown) [Example 9, N-[1-(4-methoxy-2-pyridylmethyl)piperidin-4-yl]-2-cyclopentyl-2-hydroxy-2-phenylacetamide] |  |  |  |  |  | 8.03 |  |  | 5.89 |  | 3.1 | 140 | 7.54 |
| CN1[C@@H]2CC[C@H]1C[C@@H](OC(=O)C(CO)c1ccccc1)C2 (stereo partly shown) [atropine] | potent activities in both cases | 4.3 µg/kg | non-selective | 3.7 µg/kg |  |  |  |  |  |  |  |  |  |
| O=C(NC1CCN(Cc2cccc(Cl)n2)CC1)C(O)(c1ccccc1)C1CCCC1 (stereo not shown) [Example 10, N-[1-(6-chloro-2-pyridylmethyl)piperidin-4-yl]-2-cyclopentyl-2-hydroxy-2-phenylacetamide] |  |  |  |  |  | 8.12 |  |  | 5.89 |  | 2.1 | 170 | 7.80 |
